Read-outs that look alike come from different tables or passages of the source.
Key:
[1] = Chemical stability in simulated gastric fluid (SGF); type: physicochemical; settings: SGF without enzymes, pH=1,4; 10 µm; 2 hours at 37°C; substance amount in % after thermostatting
Experimental: (§1) Chemical stability of the compounds described herein was determined in simulated gastric fluid and human blood plasma.
SGF concentrate without enzymes, pH=1,4 (Sigma Ireland, cat#01651) was used as simulated gastric fluid. Initial candidate solution (10 mM in DMSO) was diluted with an SGF working solution to a concentration of […] (test solution). The test solution was incubated in a dry block thermostat for 2 hours at 37°C. HPLC with Agilent 1200 liquid chromatography system (Agilent, USA) was employed to determine peak areas of the compounds in test samples, said peak areas corresponding to the initial test time (prior to incubation) and the final test time (after incubation in a dry block thermostat for 2 hours at 37°C). Chromatographic analysis was performed in a gradient elution regime with a flow rate of 1 mL/min. Substance amount in % in a sample after thermostatting was determined.

[2] = Chemical stability in human blood plasma; type: in vitro ADME; settings: pooled human blood plasma; 10 µM; 4 hours at 37°C; substance amount in % after thermostatting
Experimental: as §1
Determination of stability in human blood plasma was performed using pooled human blood plasma taken from ten healthy donors. The initial candidate solution (10 mM in DMSO) was diluted with pooled blood plasma to a concentration of […] (test solution). The test solution was incubated in a dry block thermostat for 4 hours at 37°C. HPLC with Agilent 1200 liquid chromatography system (Agilent, USA) was employed to determine peak areas of the compounds in test samples, said peak areas corresponding to the initial test time (prior to incubation) and the final test time (after incubation in a dry block thermostat for 4 hours at 37°C), proteins were preliminarily precipitated with acetonitrile. Chromatographic analysis was performed in a gradient elution regime with a flow rate of 1 mL/min. Substance amount in % in a sample after thermostatting was determined.

[3] = Enzyme stability in human liver microsomes; type: in vitro ADME; settings: pH 7.4; 0,5 mg/mL pooled human liver microsomes; 10 µM compound; 37°C; pH=7,4
Experimental: Measuring of candidates' enzyme stability enabled estimation of the stability of the present compounds towards the action of enzymes in liver microsomes.
Enzyme degradation rate was measured by incubating the reaction mixture in a dry block thermostat at 37°C, said reaction mixture comprising 0,5 mg/mL of pooled human liver microsomes (XenoTech, USA, cat#H2620), 10 µM compound, 2 mM β-nicotinamide adenine dinucleotide (Carbosynth, UK, cat#NN10871) and 4 mM magnesium chloride in 0,1 M sodium-phosphate buffer, pH=7,4. The reaction was quenched with acetonitrile (100 µL of acetonitrile / 100 µL of the reaction mixture). After quenching, the samples were centrifuged at 10000 rpm for 10 minutes. Supernatant fluid was tested by chromatographic technique using Agilent1200 (Agilent, USA). Chromatographic analysis was performed in a gradient elution regime with a flow rate of 1 mL/min. A graph of the logarithm of substance's peak area as a function of time was made. The dependent factor of the line corresponded to the elimination rate constant K based on which the drug's half-life t1/2 and degradation rate CLint were calculated: Elimination rate constant (k) = (−gradient) [formula] [formula] V(μL/mg) = (volume of incubation(μL))/(protein in the incubation(mg)) [formula] [formula]

[4] = Permeability through Caco-2 cell monolayer; type: in vitro ADME; settings: human, Caco-2; for Papp A→B at 2 h, 10 µM: A->B transfer, pH 6.5 -> pH 7.4, 2 hours at 37 °C; for efflux ratio at 2 h, 10 µM: efflux = Papp B-A / Papp A-B
Experimental: Estimation of permeability through Caco-2 cell monolayer enables assessment of the ability of the substances to penetrate through biological membranes by means of both active and passive transport.
Intestinal epithelial cells Caco-2 were grown on filter inserts (pore size 0.4 µm, BD Falcon with High Density) for 21 days; monolayer integrity was then checked using Lucifer Yellow (Sigma-Aldrich, USA) according to the standard protocol. In A->B transfer ("intestinal lumen" - "blood stream" transfer), solutions of the test substances in buffer, pH 6.5 (HBSS, 10 mM HEPES, 15 mM glucose) at a concentration of 10 µM were added to the upper chamber; whereas the lower chamber was filled with buffer, pH 7.4 (HBSS, 10 mM HEPES, 15 mM Glucose, 1% BSA). In B->A transfer ("blood stream" - "intestinal lumen" transfer), the upper chamber was filled with buffer, pH 6.5, whereas the solutions of the test substances in buffer, pH 7.4, at a concentration of 10 µM were added to the lower chamber. A highly permeable substance propranolol was used as a control.
After 2 hours incubation at 37 ° C under an atmosphere containing 5% CO2, the amounts of the test substances in the upper and lower chambers were measured by HPLC using an Agilent1200 HPLC system (Agilent, USA), proteins were preliminarily precipitated with acetonitrile. Chromatographic analysis was performed in a gradient elution regime with a flow rate of 1 mL/min. The peak areas corresponding to the compounds were detected on chromatograms.
The value was calculated using the formula: efflux = Papp B−A /Papp A−B , [formula] where • Papp A-E - the value of permeability direct analysis A→ B; • Papp B-A - the value of the permeability of the reverse analysis B→ A.

MV4-11 = experiment: Cell-based antiproliferative test (AlamarBlue), MV4-11; settings: 120 h incubation, average values of several tests, read-out: MV-4-11 IC50, mkM
Experimental: (§2) Antiproliferative activity of CDK8 inhibitors according to the present invention was measured in a cell-based test on continuous cell cultures MV4-11 (biphenotypic myelomonocytic leukemia, ATCC® CRL-9591™), KG-1 (acute myeloid leukemia, ATCC® CCL-246™), HL-60 (acute promyelocytic leukemia, ATCC® CCL-240™) using a vital stain AlamarBlue (ThermoFisher, #DAL1100). The cells were grown in RPMI-1640 (PanEco, #C330p) medium with addition of 10% FBS (Gibco, #16140-071); washed and resuspended in culture medium with 10% FBS (Gibco, #16140-071) in 96-well culture plates (Corning, #3599) with ≈ 10 ×10^3 cells in […] of medium per well. The compounds in question were dissolved in DMSO and diluted with a medium with 10% FBS (Gibco, #16140-071) to a final concentration ranging form 0 to 100 µM. […] of diluted compounds were then added to each well (final DMSO concentration was less than 1%) and incubated under 5% CO2 atmosphere at 37°C for 120 h. After incubating, 15 µL of AlamarBlue (ThermoFisher, #DAL1100) reagent was added per well, contents of plates were mixed in an orbital shaker (Biosan, Latvia) and further incubated for 3-5 h at 37°C under 5% CO2 atmosphere. Number of living cells was estimated using a microplate spectrophotometer (Tecan Infinite M200Pro, Switzerland) measuring fluorescent signal at the excitation wavelength (λEx) of 540 nm and emission wavelength (λEm) of 590 nm.
(§3) IC50 was calculated using Magellan 7.2 software (Tecan, Switzerland) approximating experimental points by four-parameter logistic model with the optimization by Levenberg-Marquardt (table 7, table 7).

[5] = General cytotoxicity test on HepG2 cells; type: cell-based; settings: human, HepG2 cells; 72 h incubation; 200 to 0.78 µM; average values of several tests; read-out: Hep-G2 CC50, mkM
Experimental: Cell viability was assessed using the above method. Table 6. […] The results are presented as average values of activity obtained in several tests.

KG-1 = experiment: Cell-based antiproliferative test (AlamarBlue), KG-1; settings: 120 h incubation, average values of several tests, read-out: KG-1 IC50, mkM
Experimental: as §2, §3

Compound	Stability in SGF, % [1]	Stability in blood plasma, % [2]	microsomal CLint at 10 µM [3]	Papp A→B at 2 h, 10 µM [4]	efflux ratio at 2 h, 10 µM [4]	IC50 (MV4-11; Homo sapiens, MV4-11, 120 h)	CC50 at 72 h [5]	IC50 (KG-1; Homo sapiens, KG-1)	IC50 (MV4-11)	IC50 (KG-1)
O=C(C1CN(c2cc(F)c3ncn(-c4ccc(-c5cn[nH]c5)cc4)c3c2)C1)N1CCOCC1 [CDK8-1-8, (1-(1-(4-(1H-Pyrazol-4-yl)phenyl)-4-fluoro-1H-benzo[d]imidazol-6-yl)azetidin-3-yl)(morpholino)methanone]	100%	97.8%	23.4 µL/min/mg	19.7 ×10⁻⁶ cm/s	2.9	3.92 µM	> 200 µM	–	–	–
CN1CCN(C(=O)c2cnc3c(N)ncc(-c4ccc(-c5cnn(C)c5)cc4)c3c2)CC1 [CDK8-3-31, (8-Amino-5-(4-(1-methyl-1H-pyrazol-4-yl)phenyl)-1,7-naphthyridin-3-yl)(4-methylpiperazin-1-yl) methanone]	–	–	–	–	–	–	–	0.002 µM	–	–
COC1CN(C(=O)c2cnc3c(N)ncc(-c4ccc(-c5cnn(C)c5)cc4)c3c2)C1 [CDK8-3-34, (8-Amino-5-(4-(1-methyl-1H-pyrazol-4-yl)phenyl)-1,7-naphthyridin-3-yl)(3-methoxyazetidin)methanone]	–	–	–	–	–	–	–	0.005 µM	–	–
Cn1cc(-c2ccc(-c3cncc4ncc(C(=O)NC5CC5)cc34)cc2)cn1 [CDK8-3-37]	–	–	–	–	–	–	–	–	0.022 µM	0.004 µM
Cn1cc(-c2ccc(-c3cnc(N)c4ncc(C(=O)NC5CC5)cc34)cc2)cn1 [CDK8-3-38, 8-Amino-N-cyclopropyl-5-(4-(1-methyl-1H-pyrazol-4-yl)phenyl)-1,7-naphthyridine-3-carboxamide]	–	–	–	–	–	–	–	< 0.01 µM	–	–
CN(C)c1ccc(-c2cnc3[nH]cc(C(=O)c4cccnc4)c3c2)cc1O [CDK8-4-5]	99.2%	100%	26.6 µL/min/mg	87.6 ×10⁻⁶ cm/s	0.12	0.62 µM	7.7 µM	–	–	–
O=C(c1cccnc1)c1c[nH]c2ncc(-c3ccc(N4CCOCC4)c(O)c3)cc12 [CDK8-4-7, (5-(3-Hydroxy-4-morpholinophenyl)-1H-pyrrolo[2,3-b]pyridin-3-yl) (pyridin-3-yl) methanone]	99.1%	93.8%	23.2 µL/min/mg	64.5 ×10⁻⁶ cm/s	0.34	0.39 µM	> 200 µM	–	–	–
O=C(c1ccncc1)c1c[nH]c2ncc(-c3ccc(N4CCOCC4)c(O)c3)cc12 [CDK8-4-11, (5-(3-Hydroxy-4-morpholinophenyl)-1H-pyrrolo[2,3-b]pyridin-3-yl) (pyridin-4-yl) methanone]	98.1%	88.5%	15 µL/min/mg	13.9 ×10⁻⁶ cm/s	1.54	1.33 µM	> 200 µM	–	–	–
COc1cc(-c2cnc3[nH]cc(C(=O)c4ccccn4)c3c2)ccc1N1CCOCC1 [CDK8-4-23, (5-(3-Methoxy-4-morpholinophenyl)-1H-pyrrolo[2,3-b]pyridin-3-yl) (pyridin-2-yl) methanone]	100%	87.4%	12.8 µL/min/mg	36.9 ×10⁻⁶ cm/s	0.14	0.1 µM	> 100 µM	–	–	–
COc1ccc(-c2cnc3[nH]cc(C(=O)c4ccncc4)c3c2)cc1 [CDK8-4-33, (5-(4-Methoxyphenyl)-1H-pyrrolo[2,3-b]pyridin-3-yl) (pyridin-4-yl)methanone]	100%	100%	21.2 µL/min/mg	13.4 ×10⁻⁶ cm/s	1.5	19.7 µM	> 100 µM	–	–	–
O=C(c1ccccn1)c1c[nH]c2ncc(-c3ccc(N4CCOCC4)cc3)cc12 [CDK8-4-36, (5-(4-Morpholinophenyl)-1H-pyrrolo[2,3-b]pyridin-3-yl) (pyridin-2-yl)methanone]	100%	100%	–	–	–	0.46 µM	17 µM	1.59 µM	–	–
O=C(c1ccnc2ccc(-c3ccc(-c4cn[nH]c4)cc3)cc12)N1CCCCC1 [CDK8-5-4, (6-(4-(1H-Pyrazol-4-yl)phenyl)quinolin-4-yl) (piperidin-1-yl)methanone]	99.9%	100%	37 µL/min/mg	–	–	9.56 µM	66.1 µM	–	–	–
N=C(c1ccnc2ccc(-c3ccc(-c4cn[nH]c4)cc3)cc12)N1CCCCC1 [CDK8-5-4i, (6-(4-(1H-Pyrazol-4-yl)phenyl)quinolin-4-yl) (piperidin-1-yl)methanimine]	98.8%	100%	19 µL/min/mg	–	–	4.32 µM	> 100 µM	–	–	–
COC1CN(C(=O)c2ccc3nccc(-c4ccc(-c5cn[nH]c5)cc4)c3c2)C1 [CDK8-6-4, (4-(4-(1H-Pyrazol-4-yl)phenyl)quinolin-6-yl)(3-methoxyazetidin-1-yl) methanone]	100%	100%	16.2 µL/min/mg	–	–	7.79 µM	66.6 µM	–	–	–

From patent EP3666770A1, “NOVEL HETEROCYCLIC COMPOUNDS AS CDK8/19 INHIBITORS” (Joint Stock Company "Biocad", priority 2017, dated 2019)
